We go through twelve molecules from ChEMBL document CHEMBL5131541, “Structural Feature Analyzation Strategies toward Discovery of Orally Bioavailable PROTACs of Bruton's Tyrosine Kinase for the Treatment of Lymphoma” (J Med Chem, 2022).

Common to all, as to assay type: ADME, organism-based
Settings in all cases: in vivo, dose 5-10 mg/kg

Data set [1] is described as follows: Cmax in Sprague-Dawley rat at 5 to 10 mg/kg, po administered as cassette dose measured upto 24 hrs by LC-MS analysis. Set-up: time < 24 hrs, route po.
The nature of data set [2]: Tmax in Sprague-Dawley rat at 5 to 10 mg/kg, po administered as cassette dose measured upto 24 hrs by LC-MS analysis.
Data set [3] is described as follows: Dose normalized AUC (0 to t) in Sprague-Dawley rat at 5 to 10 mg/kg, po administered as cassette dose measured upto 24 hrs by LC-MS analysis.
Data set [4] in a line: AUC (0 to t) in Sprague-Dawley rat at 5 to 10 mg/kg, po administered as cassette dose measured upto 24 hrs by LC-MS analysis. Set-up: time < 24 hrs, route po.
Data set [5] is described as follows: Half life in Sprague-Dawley rat at 5 to 10 mg/kg, po administered as cassette dose measured upto 24 hrs by LC-MS analysis.

Usually Cmax stands for the highest concentration seen after dosing. For orientation: Tmax means the time at which the peak concentration occurs. What is called AUC(0-t) is the area under the concentration-time curve up to a stated or last time point. Higher therefore signals high exposure. The term half-life denotes the time in which the quantity being followed falls by half. The low end stands for fast loss, the high end for slow loss.

In the case of `O=C1CCC(N2C(=O)c3cccc(N4CCN(C5CCN(CCCCOc6ccc(C(F)(F)F)cc6)CC5)CC4)c3C2=O)C(=O)N1` (centres undefined), the concentration in data set [1] peaked (Cmax) at 71 ng/mL. The Tmax in data set [2] came out at 4.7 h. Further, the AUCt/dose in data set [3] stood at 116 ng·h/mL/mg. Besides, in data set [4], the AUC(0-t) at 24 h stood at 1160 ng·h/mL. The molecule also showed a half-life in data set [5] of 5.3 h.

Turning to `O=C1CCC(N2Cc3cc(C#CCN4CCN(CC#CCOc5ccc(C(F)(F)F)cc5)CC4)ccc3C2=O)C(=O)N1` (centres undefined), in data set [1], the peak level (Cmax) was 1550 ng/mL. Moreover, the Tmax in data set [2] was found to be 8.3 h. Besides, the AUCt/dose in data set [3] is 1524 ng·h/mL/mg. For the same molecule, the AUC(0-t) at 24 h in data set [4] is 15200 ng·h/mL. The molecule also had a half-life in data set [5] of 6 h.

Molecule `O=C1CCC(N2Cc3cc(C#CCN4CCN(c5ccc(C(F)(F)F)cc5)CC4)ccc3C2=O)C(=O)N1` (centres undefined) gave a Cmax in data set [1] of 1050 ng/mL. Further, the Tmax in data set [2] stood at 6.7 h. The same molecule came in with an AUCt/dose in data set [3] of 1527 ng·h/mL/mg. In data set [4], this molecule had an AUC(0-t) at 24 h of 15300 ng·h/mL. This molecule showed a half-life in data set [5] of 4 h.

In data set [1], `O=C1CCC(N2Cc3cc(CCCN4CCN(CC#CCOc5ccc(C(F)(F)F)cc5)CC4)ccc3C2=O)C(=O)N1` (centres undefined) showed a Cmax of 99 ng/mL. Besides, the Tmax in data set [2] was 0.3 h. Moreover, in data set [3], the AUCt/dose turned out to be 47 ng·h/mL/mg. Besides, the exposure AUC(0-t) at 24 h in data set [4] worked out at 236 ng·h/mL. For the same molecule, in data set [5], the half-life was 2.2 h.

`O=C1CCC(N2C(=O)c3cccc(N4CCN(C5CCN(CC#CCOc6ccc(C(F)(F)F)cc6)CC5)CC4)c3C2=O)C(=O)N1` (centres undefined) showed a Cmax in data set [1] of 269 ng/mL. Further, the Tmax in data set [2] is 1.2 h. The molecule also returned an AUCt/dose in data set [3] of 143 ng·h/mL/mg. The AUC(0-t) at 24 h in data set [4] was determined as 142 ng·h/mL. Besides, the half-life in data set [5] is 9.7 h.

Consider `O=C1CCC(N2Cc3ccc(C#CCN4CCN(CC#CCOc5ccc(C(F)(F)F)cc5)CC4)cc3C2=O)C(=O)N1` (centres undefined), for which the Cmax in data set [1] was determined as 1250 ng/mL. In addition, the Tmax in data set [2] is 8.5 h. In data set [3], the AUCt/dose was 796 ng·h/mL/mg. Also, the AUC(0-t) at 24 h in data set [4] came to 7960 ng·h/mL.

In data set [1], `O=C1CCC(N2C(=O)c3cccc(N4CCN(CC5CCN(CC#CCOc6ccc(C(F)(F)F)cc6)CC5)CC4)c3C2=O)C(=O)N1` (centres undefined) registered a Cmax of 419 ng/mL. Besides, the time to peak (Tmax) in data set [2] was 11 h. The molecule further came in with an AUCt/dose in data set [3] of 435 ng·h/mL/mg. Besides, the AUC(0-t) at 24 h in data set [4] stood at 4350 ng·h/mL. The half-life in data set [5] was 8.9 h.

In turn, `O=C1CCC(N2C(=O)c3ccc(N4CCN(C5CN(CC#CCOc6ccc(C(F)(F)F)cc6)C5)CC4)cc3C2=O)C(=O)N1` (centres undefined) showed a Cmax in data set [1] of 1050 ng/mL. The Tmax in data set [2] worked out at 1.2 h. The molecule also had an AUCt/dose in data set [3] of 708 ng·h/mL/mg. In data set [4], the AUC(0-t) at 24 h was 7080 ng·h/mL. The same molecule showed a half-life in data set [5] of 8.6 h.

Regarding `O=C1CCC(N2C(=O)c3ccc(N4CCN(CC#CCN5CCN(c6ccc(C(F)(F)F)cc6)CC5)CC4)cc3C2=O)C(=O)N1` (centres undefined), the highest level in data set [1] (Cmax) was 200 ng/mL. Further, the Tmax in data set [2] was 2.8 h. Also, the AUCt/dose in data set [3] was found to be 194 ng·h/mL/mg. Besides, in data set [4], the AUC(0-t) at 24 h turned out to be 1940 ng·h/mL. The molecule further gave a half-life in data set [5] of 14 h.

As for `O=C1CCC(N2C(=O)c3ccc(N4CCN(C5CN(CCCCOc6ccc(C(F)(F)F)cc6)C5)CC4)cc3C2=O)C(=O)N1` (centres undefined), the peak level in data set [1] (Cmax) was 223 ng/mL. Moreover, the Tmax in data set [2] worked out at 10 h. Also, the AUCt/dose in data set [3] was determined as 281 ng·h/mL/mg. In data set [4], the AUC(0-t) at 24 h came out at 2810 ng·h/mL. In data set [5], this molecule showed a half-life of 3.4 h.

Take `O=C1CCC(N2C(=O)c3cccc(N4CCN(CC5CCN(CCCCOc6ccc(C(F)(F)F)cc6)CC5)CC4)c3C2=O)C(=O)N1` (centres undefined): in data set [1], the Cmax was found to be 68 ng/mL. In data set [2], the Tmax is 10.7 h. The molecule further displayed an AUCt/dose in data set [3] of 113 ng·h/mL/mg. In data set [4], the AUC(0-t) at 24 h turned out to be 1130 ng·h/mL. Also, in data set [5], the half-life was 112 h.

On to `O=C1CCC(N2Cc3c(OC4CN(CC#CCN5CCN(c6ccc(C(F)(F)F)cc6)CC5)C4)cccc3C2=O)C(=O)N1` (centres undefined), for which the peak level in data set [1] (Cmax) was 232 ng/mL. Moreover, the time of peak concentration (Tmax) in data set [2] was found to be 0.3 h. Besides, the AUCt/dose in data set [3] stood at 128 ng·h/mL/mg. Besides, the AUC(0-t) at 24 h in data set [4] is 49 ng·h/mL. The half-life in data set [5] is 5.7 h.
